Test results taken from patent US20240309018A1, “THIAZOLE-LACTAM-SPIROHETEROCYCLIC COMPOUNDS AND APPLICATIONS THEREOF” (D3 BIO (WUXI) CO., LTD, priority 2021, published 2024).
pIC50: −log10 of the molar value.

How the values were obtained:
ERK2 kinase = ERK2 kinase (Homo sapiens (Human), UniProt P28482); assay: ERK2 in vitro kinase activity assay (33P-ATP, MBP substrate, filter-binding); format: biochemical
Method: The ability of the compound to inhibit ERK1 and ERK2 kinase activity was measured.
20 mM Hepes (pH 7.5), 10 mM MgCl2, 1 mM ethylenebis(oxyethylenenitrilo)tetraacetic acid (EGTA), 0.02% Brij35, 0.02 mg/mL bovine serum albumin (BSA), 0.1 mM Na3VO4, 2 mM dithiothreitol (DTT), 1% DMSO.
The assay compound was dissolved in 100% DMSO to prepare a stock solution of specific concentration. The compound was serially diluted in DMSO solution using Integra Viaflo Assist smart pipette.
• 1) The substrate MBP was prepared in freshly prepared reaction buffer; • 2) ERK1 (or ERK2) kinase was added to the above-mentioned MBP solution and mixed gently; • 3) The compound dissolved in 100% DMSO was added to the kinase reaction system using ultrasound technology (Echo550; nanoliter range), and the mixture was incubated at room temperature for 20 minutes; • 4) 33P-ATP (specific concentration of […]) was added to the reaction system, and the reaction was started at this time; • 5) The mixture was incubated at room temperature for 2 hours; • 6) The amount of radioactivity was detected by filter-binding method; • 7) ERK1 (or ERK2) kinase activity was calculated as the ratio of the remaining kinase activity in the assay sample to the kinase activity of the control group (treated by DMSO). Curve was fitted using Prism (GraphPad software) and IC50 values were calculated. • 5.

[1] = In vivo PK study in beagle dogs; parameters: species or system beagle dog; details: male beagle dogs
Method: Male beagle dogs were used as assay animals. After a single administration, the plasma concentration of the compound was measured and the pharmacokinetic behavior was evaluated.
Five healthy adult male beagle dogs were selected, wherein 2 were in an intravenous injection group, and 3 were in an oral group. The vehicle in the intravenous injection group was 5% DMSO+95% (20% HP-β-CD). The compound to be assayed was mixed with an appropriate amount of vehicle for intravenous injection, and dissolved with stirring to prepare a clear solution of 0.4 mg/mL. The clear solution was filtered by a microporous membrane, and then ready for use. The vehicle in the oral group was 5% DMSO+95% (20% HP-β-CD). The compound to be assayed was mixed with the vehicle, and dissolved with stirring to prepare a solution of 0.3 mg/mL. […] were administered 1 mg/kg intravenously or 3 mg/kg orally, and then whole blood was collected for a certain period. Plasma was prepared. The drug concentration was analyzed by LC-MS/MS method, and the pharmacokinetic parameters were calculated by Phoenix WinNonlin software (Pharsight, USA).

human plasma albumin = assay: Plasma protein binding (ultracentrifugation), human; format: in vitro ADME; also: tested at 0.2 µM
Method: The binding degree of the assay compound to human/mouse/rat/canine/monkey plasma albumin was studied.
• 1) Matrix preparation: on the day of the assay, plasma was thawed in cold water and centrifuged at 3220 rpm for 5 min to remove all clots. The pH of the resulting plasma was measured and adjusted to 7.4±0.1 using 1% phosphoric acid or IN sodium hydroxide as needed. • 2) Dilution procedure for the assay compound: the assay compound was dissolved in dimethyl sulfoxide (DMSO) to prepare stock solutions with concentrations of 10 mM and 2 mM, respectively. A 40 μM working solution was prepared by diluting 2 μL of stock solution (2 mM) with 98 μL of DMSO. A 400 μM working solution of the control compound was prepared by diluting 10 μL of stock solution with 240 μL of DMSO. The working solution of the compound (5 μL) was mixed well with a blank matrix (995 μL) at a ratio of 1:200 to prepare a loading matrix.
• a) An equal volume of 30 μL of loading matrix (n=2) was transferred to a sample collection plate to prepare a time 0 (TO) sample for residue determination. The sample was immediately matched with the corresponding blank buffer to a final volume of 60 μL, and the volume ratio of plasma to buffer in each well was 1:1. […] The mixture was centrifuged at 4000 rpm for 20 min and 100 μL of supernatant from each sample was analyzed by LC-MS/MS.

ERK2 kinase, sequence (P28482 whole entry): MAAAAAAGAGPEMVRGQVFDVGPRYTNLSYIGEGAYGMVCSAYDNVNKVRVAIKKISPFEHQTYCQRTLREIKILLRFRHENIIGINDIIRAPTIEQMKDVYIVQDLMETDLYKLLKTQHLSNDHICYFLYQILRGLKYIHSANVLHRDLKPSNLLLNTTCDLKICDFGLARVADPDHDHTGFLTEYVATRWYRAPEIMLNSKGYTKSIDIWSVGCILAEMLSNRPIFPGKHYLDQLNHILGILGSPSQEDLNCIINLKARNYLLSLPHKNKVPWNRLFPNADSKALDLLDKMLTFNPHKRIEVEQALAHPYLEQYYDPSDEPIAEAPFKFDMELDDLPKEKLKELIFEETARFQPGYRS

Work on Cc1cccc(CN2C(=O)c3nc(-c4nc(Nc5ccnn5C)ncc4C)sc3C23COC3)n1 [WX001] yielded a pIC50 (ERK2 kinase) of 9.27, a clearance ([1]; dog, plasma, intravenous, 1 mg/kg intravenously or 3 mg/kg orally) of 10.1 mL/min/kg and a Vd ([1]; dog, plasma, intravenous, 1 mg/kg intravenously or 3 mg/kg orally, read-out: Vdss) of 1.29 L/kg. The half-life ([1]; dog, plasma, 1 mg/kg intravenously or 3 mg/kg orally) was 3.48 h, the bioavailability ([1]; dog, plasma, 1 mg/kg intravenously, 3 mg/kg orally, oral bioavailability) was 60% and the Cmax ([1]; dog, single dose, 1 mg/kg intravenously or 3 mg/kg orally, plasma) was 1770 nM. For the same molecule, the “Oral DNAUC” value ([1]; 3 mg/kg orally, AUCPO/Dose) was 2307.32 nM · h/mpk and the “Plasma protein binding rate (unbound %)” value (human plasma albumin) was 15.9%.
